Assays:
[1] = Acute oral toxicity test in rats; conditions: SD, rat, in vivo, single oral dose, suspended in 0.5% methyl cellulose, read-out: lethal dose (LD50) for oral administration
Procedure: In this test, six-week old SPF SD rats were used with two rats assigned to each group. Each group was consisted of two rats. The compounds prepared in example 1, 7, 11, 17, 22, 24, 26, 28, 30, 32, 34, 42, 52, 54, 55, 56, 57, 59, 60, 61, 70, 75, 77, 79, 81, 83, 85, and 89 were suspended in 0.5% methyl cellulose, respectively. […] Also, hematological test and biochemical analysis were accomplished. After sacrificing the animals, autopsy was performed for macroscopic observations of the organs and tissues. As a result, there was no significant changes in clinical symptoms, body weight and mortalities. Also in hematology, serum chemistry parameters, macroscopic observation and drug-related changes were not observed.

cortical neuron cells = assay: Protective effect on iron-induced neuronal cell injury (LDH release); type: cell-based; conditions: FeSO4 50 μM; for protective effect on neuron cell: Inhibition (%, 30 μM compound addition): LDH reduction vs control; for IC50: LDH
Procedure: From the brains of 17˜18 day-old embryos, cortical neuron cells were isolated and then, cultured at 37° C. for 7˜9 days in a 5% CO2 incubator. The said cortical cell cultures were washed twice with MEM (Minimum essential medium) to reduce the serum level to 0.2%. […] Then, the compound of the said concentration was pre-treated for 30 min, respectively. For the experiment, test compound was dissolved in DMSO and diluted in a medium. At this time, the final concentration of DMSO was not allowed to exceed 0.1%. For control group, only vehicle was applied.
After the said pre-treatment, FeSO4 was added to the medium for a final concentration to be 50 μM. The medium was cultured in CO2 incubator for 24 hours. During the incubation, lactate dehydrogenase (LDH) was released by iron. The serum level of lactate dehydrogenase released into the medium was measured to assess necrosis of neuronal cell by the oxidative toxicity of iron. The protective effect on neuron cells of the test compounds was evaluated by calculating the LDH reduction rate of treatment-group compared with that of the control group.

brain homogenate = assay: Inhibitory effect against lipid peroxidation by iron (MDA quantification); type: biochemical, rat; conditions: 100 μM compound, FeCl2 400 μM, 37° C. 30 min
Procedure: The rat brain was homogenized in a Krebs buffer (15 mM HEPES, 10 mM glucose, 140 mM NaCl, 3.6 mM KCl, 1.5 mM CaCl2, 1.4 mM KH2PO4, 0.7 mM MgCl2, PH 7.4) and the supernatant separated by centrifugation at 12,000 rpm for 10 min was used for further experiments. FeCl2 was added for the final concentration to be 400 μM. Then the brain homogenate was allowed to stand at 37° C. for 30 min for the facilitation of oxidation. Each of the test compounds was added at a concentration of 100 μM. For control group, only vehicle was applied.
Iron facilitates the oxidation of the said brain homogenate to produce malondialdehyde (MDA), lipid peroxidation product. Thus, the lipid peroxidation was determined by MDA quantification. The inhibitory effect against lipid peroxidation of the test compounds was evaluated by calculating MDA reduction rate of the test compounds compared with that of the control group.
Typically, the MDA quantification is achieved by reacting samples with 2-thiobarbituric acid (TBA) and measuring the absorbance at 530 nm. However, this method is unsuitable to treat samples on a large scale because of a boiling step. Thus, in this experiment, N-methyl-2-phenylindole was used instead of TBA.

isolated rat aorta = assay: Vasodilating effect on blood vessel excised from rats (methoxamine-constricted aorta); conditions: isolated rat aorta constricted with methoxamine (3 μM); read-out: Concentration for inhibition of constriction induced by methoxamine in rat arota (IC50)
Excerpt: Rats (350˜450 g, obtained from the Experimental Animal Team of the Korea Research Institute of Chemical Technology) were knocked to be unconscious by hitting the occipital region, sacrificed by cervical dislocation, and underwent thoracotomy. After being quickly removed, the thoracic aorta was deprived of the adipose tissue and cut into aortic rings of 3 mm width. The aorta was lightly rubbed with cotton club soaked in a modified Krebs Henseleit buffer (Physiological salt solution) to remove the inner epithelial layer therefrom. While being hung in an organ bath containing a physiological buffer, the vascular smooth muscle was allowed to equilibrate under a resting tension of 2 g and then, stand for 1 hour at 37° C. for stabilization, supplying a carbogen consisting of 95% O2˜5% CO2.
Thereafter, the vascular smooth muscle was constricted with 10^−5M phenylephrine and washed several times with physiological saline solution. The said procedure was repeated again to ensure the stable reactivity of vascular smooth muscle to repetitive constriction/relaxation.
Thereafter, 3×10^−6 M methoxamine was applied to induce an intensive constriction in the vascular smooth muscle. When the vasoconstriction induced by the methoxamine was reached and maintained to a maximum, test compounds and control material was cumulatively added to the organ bath in concentration of 1, 3, 10 and 30 μM, respectively, to examine the vasodilating effect. Cromakalim, BMS-180448 (the compound of formula 4) and BMS-191095 (the compound of formula 5), known to be the first generation KATP opener with potent vasodilating effect were used as control materials.
The change rate of constriction by the addition of the drugs compared to the maximal constriction induced by methoxamine was calculated to plot a concentration-relaxation response curve. Through a least linear regression analysis, IC50 that the drug concentration at which the vascular tissue is relaxed to 50% extent of the maximal constriction, was obtained for each drug.

[2] = tested on: isolated ischemic rat heart; assay: Cardioprotective effect in ischemic heart models of rats (Langendorff); conditions: 10 μM
Procedure: Male rats (300˜450 g, obtained form the experimental animal team of the Korea Research Institute of Chemical Technology) were anaesthetized by the intra-peritoneal injection of sodium pentobarbital at a dose of 100 mg/kg. Heparin (1,000 U/kg) was injected to the tail vein and then the heart was enucleated. Particularly, cannula (PE 240) was inserted to the organ. Rats were mechanically ventilated with a rodent ventilator, in situ aorta cannula was inserted into their aorta. In retorograde perfusion, their hearts were enucleated, then just hung onto Langendorff Apparatus. Tissue attached at the heart was removed. Heart was perfused in oxygenated modified Krebs-Henseleit bicarbonate buffer (composition<mM/L>116 NaCl, 4.7 KCl, 1.1 MgSO4, 1.17 KH2PO4, 24.9 NaHCO3, 2.52 CaCl2, 8.32 Glucose, 2.0 Pyruvate) at a constant perfusion pressure (85 mmHg). A metal cannula attached to latex balloon filled with solvent (ethanol: water=1:1 (v/v)) was placed in the left ventricle through pulmonary vein and connected to a isovolumetric pressure transducer (H.S.E., Germany) for measurement of left ventricular pressure (LVP). The hearts were allowed to equilibrate for 15 min, at which time left ventricular end-diastolic pressure (EDP) was adjusted to 5 mmHg and this balloon volume was maintained throughout the experiment.
Baseline cardiac contractile function, heart rate (HR), and coronary flow (CF) were measured. Cardiac contractile function was calculated by […], yielding LVDP (left ventricular developed pressure). Double product RPP (rate-pressure product) (DP), another important parameter for indirectly assessing cardiac performance in Langendorff heart impossible to measure cardiac output was calculated by multiplying HR by LVDP.
Throughout the experiment, total coronary blood flow was measured by the use of coronary flow probe (diameter: 1.0 mm) installed in aortic cannula with electromagnetic flowmeter. Temperature of heart was steadily maintained by immersing the heart at 37° C. in physiological saline solution to which 95% O2/5% CO2 was constantly supplied. After stabilization for 15 min, the hearts were pre-treated for 10 min in vehicle (0.04% DMSO) or mixture containing the compound of the present invention or control material. Thereafter, cardiac contractile function, HR and CF were repeatedly measured. Global ischemia was induced by completely shutting off the perfusate for 30 min. Severity of ischemia was determined as the time to contracture (TTC, min) during global ischemia in which the first 5 mmHg increase in EDP was observed. Then, the hearts were reperfused and, 30 min later, contractile functions (LVDP, HR and CF) was repeatedly measured. After reperfusion was accomplished for 30 min, LDH (lactate dehydrogenase) was measured as a sensitive index for loss of cell viability with a kit.

SMILES | LD50 [1] [mg/kg] | protective effect on neuron cell: Inhibition (%, 30 μM compound addition) (cortical neuron cells; 24 hours) [%] | IC50 (cortical neuron cells; Cortical neurone, 24 h) [nM] | inhibitory effect against lipid peroxidation induced by iron (%, 100 μM) (brain homogenate) [%] | IC50 (cortical neuron cells; 24 hours) [nM] | IC50 (isolated rat aorta) [µM] | EDP (mmHg) ([2]; after 30 min global ischemia and reperfusion) | LDH (u/g) ([2]; reperfusion LDH release) | LVDP X HR (%) ([2]; reperfusion, % of pre-treatment DP) | TTC ([2]; time to contracture during global ischemia) [min]
COC(OC)[C@@]1(C)Oc2ccc(N)cc2[C@H](N(Cc2nnn(C)n2)c2ccc(F)cc2)[C@H]1O [Example 56, (2S,3R,4S)-6-amino-4-[N-(4-fluorophenyl)-N-(2-methyl-2H-tetrazol-5-ylmethyl)amino]-3-hydroxy-2-methyl-2-dimethoxymethyl-3,4-dihydro-2H-1-benzopyran] | > 2000 | 100 | 5300 | 76 | – | – | – | – | – | –
COC(OC)[C@@]1(C)Oc2ccc([N+](=O)[O-])cc2[C@H](N(Cc2nnn(C)n2)c2ccc(O)cc2C)[C@H]1O [Example 64, (2S,3R,4S)-6-nitro-4-[N-(2-methyl-4-hydroxyphenyl)-N-(2-methyl-2H-tetrazol-5-ylmethyl)amino]-3-hydroxy-2-methyl-2-dimethoxymethyl-3,4-dihydro-2H-1-benzopyran] | – | – | – | 79 | – | – | – | – | – | –
COC(OC)[C@@]1(C)Oc2ccc(N)cc2[C@@H](N(Cc2nnn(C)n2)c2ccc(OC(F)(F)F)cc2)[C@@H]1O [Example 81, (2S,3S,4R)-6-amino-4-[N-(4-trifluoromethoxyphenyl)-N-(2-methyl-2H-tetrazol-5-ylmethyl)amino]-3-hydroxy-2-methyl-2-dimethoxymethyl-3,4-dihydro-2H-1-benzopyran] | > 2000 | 120 | < 2000 | 89 | 1500 | > 30 | – | – | – | –
COC(OC)[C@@]1(C)Oc2ccc(N)cc2[C@H](N(Cc2nnn(C)n2)c2ccccc2C(C)C)[C@H]1O [Example 52, (2S,3R,4S)-6-amino-4-[N-(2-isopropylphenyl)-N-(2-methyl-2H-tetrazol-5-ylmethyl)amino]-3-hydroxy-2-methyl-2-dimethoxymethyl-3,4-dihydro-2H-1-benzopyran] | > 2000 | 91 | 3000 | 88 | – | – | – | – | – | –
CCOC(=O)c1ccc(N(Cc2nnn(C)n2)[C@H]2c3cc(N)ccc3O[C@](C)(C(OC)OC)[C@@H]2O)cc1 [Example 54, (2S,3R,4S)-6-amino-4-[N-(4-ethoxycarbonylphenyl)-N-(2-methyl-2H-tetrazol-5-ylmethyl)amino]-3-hydroxy-2-methyl-2-dimethoxymethyl-3,4-dihydro-2H-1-benzopyran] | > 2000 | 98 | < 2000 | 87 | 1500 | – | – | – | – | –
COC(OC)[C@@]1(C)Oc2ccc(N)cc2[C@H](N(Cc2nnn(C)n2)c2ccccc2Cl)[C@H]1O [Example 30, (2S,3R,4S)-6-amino-4-[N-(2-chlorophenyl)-N-(2-methyl-2H-tetrazol-5-ylmethyl)amino]-3-hydroxy-2-methyl-2-dimethoxymethyl-3,4-dihydro-2H-1-benzopyran] | > 2000 | 103 | – | 84 | – | – | 17.0 | 15.7 | 64.7 | 27.9
COC(OC)[C@@]1(C)Oc2ccc(N)cc2[C@H](N(Cc2nnn(C)n2)c2ccc(Cl)cc2C)[C@H]1O [Example 42, (2S,3R,4S)-6-amino-4-[N-(2-methyl-4-chlorophenyl)-N-(2-methyl-2H-tetrazol-5-ylmethyl)amino]-3-hydroxy-2-methyl-2-dimethoxymethyl-3,4-dihydro-2H-1-benzopyran] | > 2000 | 103 | 2600 | 85 | – | – | – | – | – | –
COC(=O)c1cccc(N(Cc2nnn(C)n2)[C@H]2c3cc(N)ccc3O[C@](C)(C(OC)OC)[C@@H]2O)c1 [Example 59] | > 2000 | 77 | < 2000 | 70 | 1800 | – | – | – | – | –
COC(OC)[C@@]1(C)Oc2ccc(N)cc2[C@@H](N(Cc2nnn(C)n2)c2ccc(Cl)cc2)[C@@H]1OC(C)=O [Example 89, (2S,3S,4R)-6-amino-4-[N-(4-chlorophenyl)-N-(2-methyl-2H-tetrazol-5-ylmethyl)amino]-3-acetoxy-2-methyl-2-dimethoxymethyl-3,4-dihydro-2H-1-benzopyran] | > 2000 | – | – | 81 | – | – | – | – | – | –
